According to patent US20140080162A1, “FLUORESCENCE LIFETIME EPIGENETICS ASSAYS” (ALMAC SCIENCES (SCOTLAND) LIMITED, priority 2011, published 2014):
Where two headings read alike, the source gives them in different places.

What was measured:
JHDM1A = molecular target: T1, JHDM1A (Homo sapiens, UniProt Q9Y2K7); assay: JHDM1A FLT protease protection assay; type: biochemical; details: peptide 10 1 μM, JHDM1A 150 nM, 5 h; Endo-LysC up to 120 min
T1 construct: purchased BPS BioScience (via AMSBio, UK)
T1 sequence (Q9Y2K7 1-1162): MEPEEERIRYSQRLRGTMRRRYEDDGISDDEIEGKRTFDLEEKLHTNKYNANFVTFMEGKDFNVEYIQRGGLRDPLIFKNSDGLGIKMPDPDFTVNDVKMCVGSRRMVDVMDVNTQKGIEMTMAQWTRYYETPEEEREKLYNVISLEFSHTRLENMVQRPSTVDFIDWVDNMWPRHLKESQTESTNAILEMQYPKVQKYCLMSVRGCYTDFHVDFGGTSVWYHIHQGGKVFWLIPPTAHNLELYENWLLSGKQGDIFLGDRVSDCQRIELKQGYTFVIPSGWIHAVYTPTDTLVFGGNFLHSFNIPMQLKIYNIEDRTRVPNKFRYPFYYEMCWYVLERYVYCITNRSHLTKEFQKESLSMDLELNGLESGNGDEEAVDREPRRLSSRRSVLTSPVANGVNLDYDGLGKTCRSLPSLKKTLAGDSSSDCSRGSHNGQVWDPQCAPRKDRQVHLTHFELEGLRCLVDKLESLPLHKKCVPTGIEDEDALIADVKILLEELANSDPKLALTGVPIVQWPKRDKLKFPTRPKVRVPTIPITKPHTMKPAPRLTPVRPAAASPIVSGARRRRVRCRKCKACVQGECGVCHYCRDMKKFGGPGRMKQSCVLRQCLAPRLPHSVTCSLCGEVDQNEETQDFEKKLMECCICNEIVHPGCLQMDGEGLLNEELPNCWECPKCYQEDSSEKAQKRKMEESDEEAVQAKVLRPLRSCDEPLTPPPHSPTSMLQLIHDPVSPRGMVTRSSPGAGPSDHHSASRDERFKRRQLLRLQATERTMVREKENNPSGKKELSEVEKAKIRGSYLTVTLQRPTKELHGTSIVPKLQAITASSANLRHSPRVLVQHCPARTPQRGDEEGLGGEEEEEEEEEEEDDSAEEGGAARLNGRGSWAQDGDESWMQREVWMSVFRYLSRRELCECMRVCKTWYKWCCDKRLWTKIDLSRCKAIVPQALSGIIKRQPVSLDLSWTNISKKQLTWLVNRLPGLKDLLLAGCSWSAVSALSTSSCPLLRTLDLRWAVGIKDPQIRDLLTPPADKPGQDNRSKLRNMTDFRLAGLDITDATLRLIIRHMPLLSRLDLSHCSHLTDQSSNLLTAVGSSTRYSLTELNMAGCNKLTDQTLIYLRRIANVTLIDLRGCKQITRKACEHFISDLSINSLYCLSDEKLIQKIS
Procedure: The assay was performed in a 20 μl volume in a 384-well black microplate and contained peptide 10 (1 μM) and JHDM1A enzyme (150 nM) in assay buffer (50 mM Tris, pH 7.4, 100 μM sodium ascorbate, 10 μM ammonium ferrous sulfate, 100 μM α-ketoglutarate, 0.01% Tween-20). Control wells containing peptide only were also included. After 5 h incubation at room temperature, 10 μl of Endo-LysC (30 nM) was added to the wells and the plate incubated at room temperature for up to 120 min. FLTs were then measured in triplicate on a NanoTaurus plate reader.
Assays were performed in a 384-well microplate at room temperature with an assay volume of 20 μl per well. To wells containing recombinant JHDM1A enzyme in assay buffer (10 μl) was added peptide 10 in assay buffer (10 μl). Two sets of control wells containing peptide 10 only were included. The plate was shaken and then sealed with a coverslip. The final concentration of JHDM1A in the assay was 150 nM and 1 μM for peptide 10. After incubation at room temperature for 5 h, Endo-LysC (10 μl in assay buffer; final concentration 10 nM) was added to assay wells and one set of control wells. To the other set of control wells was added 10 μl of assay buffer. Following incubation at room temperature for 120 min, the microplate was centrifuged at 500 rpm for 1 min and FLTs measured. All measurements were performed in triplicate.

PCAF [1] = molecular target: T2, PCAF (Homo sapiens, UniProt Q92831); assay: PCAF FLT protease protection assay; type: biochemical; details: peptide 17 (1 μM), 125 nM PCAF, 2 h; read-out: KM (app) for AcCoA
T2 construct: purchased Enzo Life Sciences
Procedure: The dependence of the PCAF assay on AcCoA concentration was investigated. The assay was performed in a 384-well microplate at room temperature for 2 h in assay buffer (20 μl) using 125 nM PCAF and 1 μM peptide 17. Concentrations of AcCoA were varied from 25 μM-0.02 μM.
For AcCoA titrations, to wells containing varying concentrations of AcCoA (5 μl in assay buffer) was added 5 μl of peptide 17 in assay buffer followed by 10 μl of PCAF in assay buffer. […] Following a further 90 min incubation at room temperature, FLTs were measured. All measurements were performed in triplicate.

PCAF [2] = molecular target: T2, PCAF; details: literature (Poux et al. 2002); read-out: reported KM for AcCoA; cited from earlier work

T2 sequence (Q92831 whole entry): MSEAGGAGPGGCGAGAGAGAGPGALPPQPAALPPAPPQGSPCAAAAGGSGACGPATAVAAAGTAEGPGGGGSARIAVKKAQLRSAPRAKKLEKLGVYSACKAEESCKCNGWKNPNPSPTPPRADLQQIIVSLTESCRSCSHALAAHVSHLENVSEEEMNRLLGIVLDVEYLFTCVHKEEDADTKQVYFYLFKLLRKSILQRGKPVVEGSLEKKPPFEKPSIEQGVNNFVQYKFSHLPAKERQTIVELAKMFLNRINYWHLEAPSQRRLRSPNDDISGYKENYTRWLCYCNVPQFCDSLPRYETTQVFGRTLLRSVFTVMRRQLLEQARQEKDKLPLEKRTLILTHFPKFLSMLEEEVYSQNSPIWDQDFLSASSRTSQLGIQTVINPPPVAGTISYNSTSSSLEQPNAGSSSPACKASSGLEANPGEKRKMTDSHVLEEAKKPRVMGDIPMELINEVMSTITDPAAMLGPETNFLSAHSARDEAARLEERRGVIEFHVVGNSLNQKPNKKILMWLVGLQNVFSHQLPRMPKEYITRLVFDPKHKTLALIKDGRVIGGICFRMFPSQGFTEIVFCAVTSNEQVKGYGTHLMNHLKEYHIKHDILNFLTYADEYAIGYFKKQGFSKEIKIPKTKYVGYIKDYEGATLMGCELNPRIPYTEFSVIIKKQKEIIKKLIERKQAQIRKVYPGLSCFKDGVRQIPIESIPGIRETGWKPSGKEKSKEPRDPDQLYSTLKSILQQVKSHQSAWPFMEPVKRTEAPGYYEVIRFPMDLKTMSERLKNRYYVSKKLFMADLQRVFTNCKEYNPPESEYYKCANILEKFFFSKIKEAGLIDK

Row | Molecule | increase in FLT following protease treatment after reaction with JHDM1A (JHDM1A) | Km (PCAF [1]) [µM] | Km (PCAF [2]) [µM]
1 | 9AA-ATGGVK^36(Me)K(Me)PHRYW-CONH2 [peptide 10] | over 1 ns | – | –
2 | CC(=O)SCCNC(=O)CCNC(=O)[C@H](O)C(C)(C)COP(=O)(O)OP(=O)(O)OC[C@H]1O[C@@H](n2cnc3c(N)ncnc32)[C@H](O)[C@@H]1OP(=O)(O)O [AcCoA, acetyl co-enzyme A] | – | 1.2 | 1.6
